Laboratory results as given in patent publication US8247211B2, “Glycopeptide antibiotics” (American Cyanamid Company, priority 2001, dated 2012).
≈ marks a conversion by molar mass, not a printed value.

What was measured:
Assay in all cases: In vitro antibacterial evaluation: minimum inhibitory concentration (MIC), broth dilution method
Assay type in all cases: cell-based
[1] = system: Streptococcus sp.; settings: broth dilution, 5×10^5 CFU/mL, 18 hours at 35° C.
How it was run: (§1)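 Broth dilution per NCCLS M7-A2 in Muller-Hinton II […], inoculum 5×10^5 CFU/mL, antibiotic tested over 64-0.06 μg/mL. MIC is taken as the lowest concentration that inhibits growth. Panel includes recent clinical isolates resistant to methicillin, penicillin and/or vancomycin.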

[2] = system: Escherichia coli; settings: 5×10^5 CFU/mL, 18 hours at 35° C.
How it was run: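 Susceptibility determined by NCCLS-recommended broth dilution (M7-A2), Muller-Hinton II […]. Concentration span 64-0.06 μg/mL, inoculum 5×10^5 CFU/mL. Isolates include strains resistant to methicillin, penicillin and/or vancomycin.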

[3] = system: Staphylococcus sp.; settings: for MIC Staphylococcus aureus (ATCC 29213): strain ATCC 29213; for MIC Staphylococcus aureus (GC 1131): strain GC 1131; for MIC Staphylococcus aureus (GC 3051): strain GC 3051; for MIC Staphylococcus aureus (GC 3053): strain GC 3053; for MIC Staphylococcus aureus (GC 4541): strain GC 4541; for MIC Staphylococcus aureus (GC 4542): strain GC 4542; for MIC Staphylococcus aureus (GC 4544): strain GC 4544; for MIC Staphylococcus aureus (GC 4545): strain GC 4545
How it was run: as §1

[4] = system: Enterococcus sp.; settings: broth dilution, 5×10^5 CFU/mL, 18 hours at 35° C.
How it was run: as §1

[5] = broth dilution, 5×10^5 CFU/mL, 18 hours at 35° C.
[6] = broth dilution, 18 hours at 35° C.

SMILES: CC(c1ccccc1)C1NC(=O)CNC(=O)C(CO)NC(=O)C(C(O)C2CNC(=N)N2C2OC(CO)C(O)C(O)C2O)NC(=O)C(C(O)C2CNC(=N)N2)NC(=O)C(Cc2ccc(OC3OC(CO)C(OC4OC(CO)C(O)C5OC(CC67CC8CC(CC(C8)C6)C7)OC45)C(O)C3O)cc2)NC1=O (centres unmarked) [Example 128]
- MIC Streptococcus agalactiae (GC 4564) [1]: 0.25 µg/mL (≈ 0.172 µM)
- MIC Streptococcus pneumoniae (GC 1894) [1]: <0.06 µg/mL
- MIC Streptococcus pneumoniae (GC 4565) [1]: 0.12 µg/mL (≈ 0.0824 µM)
- MIC Streptococcus pneumonine (ATCC 6301) [1]: 0.25 µg/mL (≈ 0.172 µM)
- MIC Streptococcus pyogenes (GC 4563) [1]: 0.5 µg/mL (≈ 0.344 µM)
- MIC Escherichia coli (ATCC 25922) [2]: 32 µg/mL (≈ 22 µM)
- MIC Escherichia coli (GC 4559) [2]: 32 µg/mL (≈ 22 µM)
- MIC Escherichia coli (GC 4560) [2]: 4 µg/mL (≈ 2.75 µM)
- MIC Coagulase Negative Staphylococcus (GC 4547) [3, 5]: 4 µg/mL (≈ 2.75 µM)
- MIC Coagulase Negative Staphylococcus (GC 4548) [3, 5]: 2 µg/mL (≈ 1.37 µM)
- MIC Coagulase Negative Staphylococcus (GC 4549) [3, 5]: 2 µg/mL (≈ 1.37 µM)
- MIC Coagulase Negative Staphylococcus (GC 4551) [3, 5]: 4 µg/mL (≈ 2.75 µM)
- MIC Coagulase Negative Staphylococcus (GC 6257) [3, 5]: 2 µg/mL (≈ 1.37 µM)
- MIC Staphylococcus aureus-SMITH (GC 4543) [3, 5]: 2 µg/mL (≈ 1.37 µM)
- MIC Staphylococcus haemolyticus (GC 4546) [3, 5]: 2 µg/mL (≈ 1.37 µM)
- MIC Staphylococcus aureus (ATCC 29213) [3]: 2 µg/mL (≈ 1.37 µM)
- MIC Staphylococcus aureus (ATCC 29213) [3, 6]: 2 µg/mL (≈ 1.37 µM)
- MIC Staphylococcus aureus (GC 1131) [3]: 4 µg/mL (≈ 2.75 µM)
- MIC Staphylococcus aureus (GC 1131) [3, 6]: 4 µg/mL (≈ 2.75 µM)
- MIC Staphylococcus aureus (GC 3051) [3]: 2 µg/mL (≈ 1.37 µM)
- MIC Staphylococcus aureus (GC 3051) [3, 6]: 2 µg/mL (≈ 1.37 µM)
- MIC Staphylococcus aureus (GC 3053) [3]: 2 µg/mL (≈ 1.37 µM)
- MIC Staphylococcus aureus (GC 3053) [3, 6]: 2 µg/mL (≈ 1.37 µM)
- MIC Staphylococcus aureus (GC 4541) [3]: 2 µg/mL (≈ 1.37 µM)
- MIC Staphylococcus aureus (GC 4541) [3, 6]: 2 µg/mL (≈ 1.37 µM)
- MIC Staphylococcus aureus (GC 4542) [3]: 2 µg/mL (≈ 1.37 µM)
- MIC Staphylococcus aureus (GC 4542) [3, 6]: 2 µg/mL (≈ 1.37 µM)
- MIC Staphylococcus aureus-SMITH (GC 4543) ([3]; strain GC 4543, broth dilution, 18 hours at 35° C.): 2 µg/mL (≈ 1.37 µM)
- MIC Staphylococcus aureus (GC 4544) [3]: 4 µg/mL (≈ 2.75 µM)
- MIC Staphylococcus aureus (GC 4544) [3, 6]: 4 µg/mL (≈ 2.75 µM)
- MIC Staphylococcus aureus (GC 4545) [3]: 2 µg/mL (≈ 1.37 µM)
- MIC Staphylococcus aureus (GC 4545) [3, 6]: 2 µg/mL (≈ 1.37 µM)
- MIC Staphylococcus haemolyticus (GC 4546) ([3]; strain GC 4546, broth dilution, 18 hours at 35° C.): 2 µg/mL (≈ 1.37 µM)
- MIC Coagulase Negative Staphylococcus (GC 4547) ([3]; strain GC 4547, broth dilution, 18 hours at 35° C.): 4 µg/mL (≈ 2.75 µM)
- MIC Coagulase Negative Staphylococcus (GC 4548) ([3]; strain GC 4548, broth dilution, 18 hours at 35° C.): 2 µg/mL (≈ 1.37 µM)
- MIC Coagulase Negative Staphylococcus (GC 4549) ([3]; strain GC 4549, broth dilution, 18 hours at 35° C.): 2 µg/mL (≈ 1.37 µM)
- MIC Coagulase Negative Staphylococcus (GC 4551) ([3]; strain GC 4551, broth dilution, 18 hours at 35° C.): 4 µg/mL (≈ 2.75 µM)
- MIC Coagulase Negative Staphylococcus (GC 6257) ([3]; strain GC 6257, broth dilution, 18 hours at 35° C.): 2 µg/mL (≈ 1.37 µM)
- MIC Enterococccus avium (GC 4558) [4]: 4 µg/mL (≈ 2.75 µM)
- MIC Enterococccus faecalis (ATCC 29212) [4]: 4 µg/mL (≈ 2.75 µM)
- MIC Enterococccus faecalis (GC 2691) [4]: 4 µg/mL (≈ 2.75 µM)
- MIC Enterococccus faecalis (GC 3059) [4]: 4 µg/mL (≈ 2.75 µM)
- MIC Enterococccus faecalis (GC 4552) [4]: 4 µg/mL (≈ 2.75 µM)
- MIC Enterococccus faecalis (GC 4553) [4]: 4 µg/mL (≈ 2.75 µM)
- MIC Enterococccus faecalis (GC 4554) [4]: 4 µg/mL (≈ 2.75 µM)
- MIC Enterococccus faecalis (GC 6189) [4]: 4 µg/mL (≈ 2.75 µM)
- MIC Enterococccus faecium (GC 2243) [4]: 4 µg/mL (≈ 2.75 µM)
- MIC Enterococccus faecium (GC 4556) [4]: 4 µg/mL (≈ 2.75 µM)
- MIC Enterococccus faecium (GC 4557) [4]: 4 µg/mL (≈ 2.75 µM)
- MIC Enterococcus faecalis (GC 2242) [4]: 4 µg/mL (≈ 2.75 µM)
